Measurements: PMC7070407, “Moringin, A Stable Isothiocyanate from Moringa oleifera, Activates the Somatosensory and Pain Receptor TRPA1 Channel In Vitro” (Molecules, 2020)

Legend:
rat TRPA1 = biological target: T1, rat TRPA1 (Rattus norvegicus, UniProt Q6RI86); assay: Elevation of intracellular Ca2+ (Fluo-4) in HEK-293 cells stably transfected with rat TRPA1; agonist and antagonist/desensitizing behaviour; type: cell-based
T1 construct: expressed in transfected cells; host or cells: HEK-293
Description: Assay of rat TRPA1, TRPV2, TRPV3, TRPV4, TRPM8 or human TRPV1 mediated elevation of intracellular Ca^2+ in transfected HEK-293 cells are been performed as described. Briefly, human embryonic kidney (HEK-293) cells, stably transfected with rat TRPA1, TRPV2, TRPV3, TRPV4, TRPM8 or human TRPV1 (selected by Geneticin 600 μg mL^−1) or not transfected, were cultured in EMEM + 2 mM Glutamine + 1% Non-Essential Amino Acids (NEAA) + 10% FBS and maintained at 37 °C with 5% CO2. Stable transfections were checked by quantitative real-time polymerase chain reaction (PCR), quantitative real-time PCR was performed by an iCycler-iQ (Bio-Rad, Hercules, CA, USA) in a 20 μL reaction mixture containing the following: 10 μL iQ SYBR Green Supermix 2X (Bio-Rad), 20 ng of cDNA (calculated on the basis of the retro-transcribed RNA), and 330 nM for each primer. Optimized primers for SYBR Green analysis (and relative TaOpt) and optimum annealing temperatures were designed by Allele-Id software version 7.0 (Biosoft International, Palo Alto, CA, USA) and were synthesized (HPLC-purification grade) by MWG-Biotech AG (Ebersberg, Germany). Assays were performed in quadruplicate (maximal ΔCt of replicate samples, <0.5). Relative expression analysis, correct for PCR efficiency and normalized with respect to reference genes β-actin and glyceraldehyde 3-phosphate dehydrogenase, was performed by GENEX software (Bio-Rad). […] The day of the experiment the cells were loaded with Fluo-4 AM (4 μM in DMSO containing 0.02% Pluronic F-127) for 1 h in the dark at room temperature, rinsed and resuspended in Tyrode’s solution (145 mM NaCl, 2.5 mM KCl, 1.5 mM CaCl2, 1.2 mM MgCl2, 10 mM D-glucose, and 10 mM HEPES, pH 7.4), finally transferred to a quartz cuvette of a spectrofluorimeter (Perkin-Elmer LS50B; λEX = 488 nm, λEM = 516 nm) equipped with PTP-1 Fluorescence Peltier System (PerkinElmer Life and Analytical Sciences, Waltham, MA, USA) under continuous stirring. Cell fluorescence before and after the addition of various concentrations of test compounds and extracts were measured normalizing the effects against the response to ionomycin (4 µM). The values of the effect on [Ca^2+]i in HEK-293 cells not transfected are used as baseline and subtracted from the values obtained from transfected cells. […] The potency of the compounds (EC50 values) are determined as the concentration required to produce half-maximal increases in [Ca^2+]i. In TRPV3 assay TRPV3-expressing HEK293 cells were first sensitized with the structurally unrelated agonist 2-aminoethoxydiphenyl borate (100 μM). Antagonist/desensitizing behaviour is evaluated against the agonist of the TRP analyzed by adding the compounds directly in the quartz cuvette 5 min before stimulation of cells with the agonist. […] In order to assess functional antagonism of TRPA1 channels, AP18, 4-(4-chlorophenyl)-3-methyl-3-buten-2-one oxime […] Dose-response curve fitting (sigmoidal dose-response variable slope) and parameter estimation were performed with Graph-Pad Prism8® (GraphPad Software Inc., San Diego, CA, USA). All determinations were performed at least in triplicate.

rat TRPV3 = biological target: T2, rat TRPV3 (Rattus norvegicus, UniProt Q4QYD9); assay: Elevation of intracellular Ca2+ (Fluo-4) in HEK-293 cells stably transfected with rat TRPV3; type: cell-based; conditions: TRPV3, against reference agonist thymol 100 μM
T2 construct: expressed in transfected cells; host or cells: HEK-293
T2 sequence (Q4QYD9 1-791): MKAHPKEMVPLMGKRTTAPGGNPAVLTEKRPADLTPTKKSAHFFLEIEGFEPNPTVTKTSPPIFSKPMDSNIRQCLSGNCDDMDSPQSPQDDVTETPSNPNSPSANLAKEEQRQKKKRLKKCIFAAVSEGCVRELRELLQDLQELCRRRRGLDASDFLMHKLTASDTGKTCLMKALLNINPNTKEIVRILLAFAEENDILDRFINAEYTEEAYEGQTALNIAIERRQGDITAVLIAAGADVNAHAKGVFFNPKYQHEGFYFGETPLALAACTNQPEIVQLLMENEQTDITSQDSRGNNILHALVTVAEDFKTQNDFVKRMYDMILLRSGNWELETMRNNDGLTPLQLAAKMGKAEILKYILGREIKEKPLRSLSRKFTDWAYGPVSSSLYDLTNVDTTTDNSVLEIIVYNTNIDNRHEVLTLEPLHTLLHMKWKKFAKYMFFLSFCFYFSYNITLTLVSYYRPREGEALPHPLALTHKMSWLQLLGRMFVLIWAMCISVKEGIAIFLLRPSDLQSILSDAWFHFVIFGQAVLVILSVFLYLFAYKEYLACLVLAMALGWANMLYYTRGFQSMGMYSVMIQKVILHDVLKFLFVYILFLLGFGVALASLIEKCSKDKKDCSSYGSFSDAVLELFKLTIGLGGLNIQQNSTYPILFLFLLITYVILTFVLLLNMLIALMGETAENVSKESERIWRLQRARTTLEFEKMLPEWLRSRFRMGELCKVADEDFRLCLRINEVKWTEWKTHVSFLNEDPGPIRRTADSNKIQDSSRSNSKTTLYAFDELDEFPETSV
Description: (§1) Assay of rat TRPA1, TRPV2, TRPV3, TRPV4, TRPM8 or human TRPV1 mediated elevation of intracellular Ca^2+ in transfected HEK-293 cells are been performed as described. Briefly, human embryonic kidney (HEK-293) cells, stably transfected with rat TRPA1, TRPV2, TRPV3, TRPV4, TRPM8 or human TRPV1 (selected by Geneticin 600 μg mL^−1) or not transfected, were cultured in EMEM + 2 mM Glutamine + 1% Non-Essential Amino Acids (NEAA) + 10% FBS and maintained at 37 °C with 5% CO2. Stable transfections were checked by quantitative real-time polymerase chain reaction (PCR), quantitative real-time PCR was performed by an iCycler-iQ (Bio-Rad, Hercules, CA, USA) in a 20 μL reaction mixture containing the following: 10 μL iQ SYBR Green Supermix 2X (Bio-Rad), 20 ng of cDNA (calculated on the basis of the retro-transcribed RNA), and 330 nM for each primer. […] The day of the experiment the cells were loaded with Fluo-4 AM (4 μM in DMSO containing 0.02% Pluronic F-127) for 1 h in the dark at room temperature, rinsed and resuspended in Tyrode’s solution (145 mM NaCl, 2.5 mM KCl, 1.5 mM CaCl2, 1.2 mM MgCl2, 10 mM D-glucose, and 10 mM HEPES, pH 7.4), finally transferred to a quartz cuvette of a spectrofluorimeter (Perkin-Elmer LS50B; λEX = 488 nm, λEM = 516 nm) equipped with PTP-1 Fluorescence Peltier System (PerkinElmer Life and Analytical Sciences, Waltham, MA, USA) under continuous stirring. […]

human TRPV1 = biological target: T3, human TRPV1 (Homo sapiens, UniProt Q8NER1); assay: Elevation of intracellular Ca2+ (Fluo-4) in HEK-293 cells stably transfected with human TRPV1; type: cell-based
T3 construct: expressed in transfected cells; host or cells: HEK-293
T3 sequence (Q8NER1 whole entry): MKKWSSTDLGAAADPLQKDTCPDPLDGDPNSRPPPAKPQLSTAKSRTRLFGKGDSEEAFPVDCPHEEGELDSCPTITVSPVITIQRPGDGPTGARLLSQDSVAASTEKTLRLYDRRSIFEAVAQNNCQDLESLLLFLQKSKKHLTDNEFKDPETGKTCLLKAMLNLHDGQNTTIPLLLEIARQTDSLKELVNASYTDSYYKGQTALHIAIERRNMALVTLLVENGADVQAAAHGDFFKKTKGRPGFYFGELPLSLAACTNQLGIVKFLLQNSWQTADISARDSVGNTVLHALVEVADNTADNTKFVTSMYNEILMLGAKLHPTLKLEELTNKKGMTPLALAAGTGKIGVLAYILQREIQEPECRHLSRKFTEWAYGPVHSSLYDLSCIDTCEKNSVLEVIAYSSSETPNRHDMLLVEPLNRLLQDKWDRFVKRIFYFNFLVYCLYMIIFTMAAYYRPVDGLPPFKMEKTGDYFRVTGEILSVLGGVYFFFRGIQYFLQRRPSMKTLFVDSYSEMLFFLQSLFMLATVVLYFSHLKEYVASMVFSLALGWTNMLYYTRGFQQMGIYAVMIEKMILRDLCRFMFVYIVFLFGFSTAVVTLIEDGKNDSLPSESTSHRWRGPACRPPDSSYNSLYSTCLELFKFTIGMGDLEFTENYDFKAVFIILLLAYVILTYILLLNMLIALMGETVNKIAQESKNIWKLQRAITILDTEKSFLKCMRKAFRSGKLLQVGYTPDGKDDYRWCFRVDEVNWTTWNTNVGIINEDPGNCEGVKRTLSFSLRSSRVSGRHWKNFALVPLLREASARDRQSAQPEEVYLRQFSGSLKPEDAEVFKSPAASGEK
Description: Assay of rat TRPA1, TRPV2, TRPV3, TRPV4, TRPM8 or human TRPV1 mediated elevation of intracellular Ca^2+ in transfected HEK-293 cells are been performed as described. Briefly, human embryonic kidney (HEK-293) cells, stably transfected with rat TRPA1, TRPV2, TRPV3, TRPV4, TRPM8 or human TRPV1 (selected by Geneticin 600 μg mL^−1) or not transfected, were cultured in EMEM + 2 mM Glutamine + 1% Non-Essential Amino Acids (NEAA) + 10% FBS and maintained at 37 °C with 5% CO2. Stable transfections were checked by quantitative real-time polymerase chain reaction (PCR), quantitative real-time PCR was performed by an iCycler-iQ (Bio-Rad, Hercules, CA, USA) in a 20 μL reaction mixture containing the following: 10 μL iQ SYBR Green Supermix 2X (Bio-Rad), 20 ng of cDNA (calculated on the basis of the retro-transcribed RNA), and 330 nM for each primer. Optimized primers for SYBR Green analysis (and relative TaOpt) and optimum annealing temperatures were designed by Allele-Id software version 7.0 (Biosoft International, Palo Alto, CA, USA) and were synthesized (HPLC-purification grade) by MWG-Biotech AG (Ebersberg, Germany). Assays were performed in quadruplicate (maximal ΔCt of replicate samples, <0.5). Relative expression analysis, correct for PCR efficiency and normalized with respect to reference genes β-actin and glyceraldehyde 3-phosphate dehydrogenase, was performed by GENEX software (Bio-Rad). […] The day of the experiment the cells were loaded with Fluo-4 AM (4 μM in DMSO containing 0.02% Pluronic F-127) for 1 h in the dark at room temperature, rinsed and resuspended in Tyrode’s solution (145 mM NaCl, 2.5 mM KCl, 1.5 mM CaCl2, 1.2 mM MgCl2, 10 mM D-glucose, and 10 mM HEPES, pH 7.4), finally transferred to a quartz cuvette of a spectrofluorimeter (Perkin-Elmer LS50B; λEX = 488 nm, λEM = 516 nm) equipped with PTP-1 Fluorescence Peltier System (PerkinElmer Life and Analytical Sciences, Waltham, MA, USA) under continuous stirring. Cell fluorescence before and after the addition of various concentrations of test compounds and extracts were measured normalizing the effects against the response to ionomycin (4 µM). The values of the effect on [Ca^2+]i in HEK-293 cells not transfected are used as baseline and subtracted from the values obtained from transfected cells. […] The potency of the compounds (EC50 values) are determined as the concentration required to produce half-maximal increases in [Ca^2+]i. In TRPV3 assay TRPV3-expressing HEK293 cells were first sensitized with the structurally unrelated agonist 2-aminoethoxydiphenyl borate (100 μM). Antagonist/desensitizing behaviour is evaluated against the agonist of the TRP analyzed by adding the compounds directly in the quartz cuvette 5 min before stimulation of cells with the agonist. […]

rat TRPV2 = biological target: T4, rat TRPV2 (Rattus norvegicus, UniProt Q9WUD2); assay: Elevation of intracellular Ca2+ (Fluo-4) in HEK-293 cells stably transfected with rat TRPV2; type: cell-based
T4 construct: expressed in transfected cells; host or cells: HEK-293
T4 sequence (Q9WUD2 1-761): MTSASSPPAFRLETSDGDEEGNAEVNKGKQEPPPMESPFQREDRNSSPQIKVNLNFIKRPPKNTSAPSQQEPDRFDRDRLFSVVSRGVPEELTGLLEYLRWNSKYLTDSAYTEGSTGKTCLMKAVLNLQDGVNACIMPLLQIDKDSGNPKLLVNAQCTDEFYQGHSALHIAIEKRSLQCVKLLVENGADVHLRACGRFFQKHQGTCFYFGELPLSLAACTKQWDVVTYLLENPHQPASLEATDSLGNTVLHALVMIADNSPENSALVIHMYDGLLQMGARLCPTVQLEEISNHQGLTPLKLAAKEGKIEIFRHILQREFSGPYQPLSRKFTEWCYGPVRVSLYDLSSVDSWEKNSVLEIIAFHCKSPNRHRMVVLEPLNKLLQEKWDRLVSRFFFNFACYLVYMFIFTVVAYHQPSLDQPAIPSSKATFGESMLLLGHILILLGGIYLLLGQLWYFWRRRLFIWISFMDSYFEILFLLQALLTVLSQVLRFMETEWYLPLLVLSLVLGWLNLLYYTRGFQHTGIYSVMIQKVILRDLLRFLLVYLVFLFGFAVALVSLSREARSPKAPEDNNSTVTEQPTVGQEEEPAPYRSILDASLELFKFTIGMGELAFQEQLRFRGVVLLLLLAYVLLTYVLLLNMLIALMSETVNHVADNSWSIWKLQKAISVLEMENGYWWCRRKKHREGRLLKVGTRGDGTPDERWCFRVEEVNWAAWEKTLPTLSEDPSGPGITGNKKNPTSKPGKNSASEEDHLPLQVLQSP
Description: as §1

[1] = tested on: Amyotrophic Lateral Sclerosis (ALS) transgenic model; design: method as in PMID 26075221; conditions: cited from earlier work
[2] = tested on: not transfected HEK-293 cells; assay: Effect on [Ca2+]i in not transfected HEK-293 cells (baseline); type: cell-based, human
Description: Compound and extracts’ effects on intracellular Ca^2+ concentration ([Ca^2+]i) were determined using the selective intracellular fluorescent probe for Ca^2+ Fluo-4. Assay of rat TRPA1, TRPV2, TRPV3, TRPV4, TRPM8 or human TRPV1 mediated elevation of intracellular Ca^2+ in transfected HEK-293 cells are been performed as described. Briefly, human embryonic kidney (HEK-293) cells, stably transfected with rat TRPA1, TRPV2, TRPV3, TRPV4, TRPM8 or human TRPV1 (selected by Geneticin 600 μg mL^−1) or not transfected, were cultured in EMEM + 2 mM Glutamine + 1% Non-Essential Amino Acids (NEAA) + 10% FBS and maintained at 37 °C with 5% CO2. Stable transfections were checked by quantitative real-time polymerase chain reaction (PCR), quantitative real-time PCR was performed by an iCycler-iQ (Bio-Rad, Hercules, CA, USA) in a 20 μL reaction mixture containing the following: 10 μL iQ SYBR Green Supermix 2X (Bio-Rad), 20 ng of cDNA (calculated on the basis of the retro-transcribed RNA), and 330 nM for each primer. […] Cell fluorescence before and after the addition of various concentrations of test compounds and extracts were measured normalizing the effects against the response to ionomycin (4 µM). […] The potency of the compounds (EC50 values) are determined as the concentration required to produce half-maximal increases in [Ca^2+]i. […]

rat TRPV4 = biological target: T5, rat TRPV4 (Rattus norvegicus, UniProt Q9ERZ8); assay: Elevation of intracellular Ca2+ (Fluo-4) in HEK-293 cells stably transfected with rat TRPV4; type: cell-based
T5 construct: expressed in transfected cells; host or cells: HEK-293
T5 sequence (Q9ERZ8 whole entry): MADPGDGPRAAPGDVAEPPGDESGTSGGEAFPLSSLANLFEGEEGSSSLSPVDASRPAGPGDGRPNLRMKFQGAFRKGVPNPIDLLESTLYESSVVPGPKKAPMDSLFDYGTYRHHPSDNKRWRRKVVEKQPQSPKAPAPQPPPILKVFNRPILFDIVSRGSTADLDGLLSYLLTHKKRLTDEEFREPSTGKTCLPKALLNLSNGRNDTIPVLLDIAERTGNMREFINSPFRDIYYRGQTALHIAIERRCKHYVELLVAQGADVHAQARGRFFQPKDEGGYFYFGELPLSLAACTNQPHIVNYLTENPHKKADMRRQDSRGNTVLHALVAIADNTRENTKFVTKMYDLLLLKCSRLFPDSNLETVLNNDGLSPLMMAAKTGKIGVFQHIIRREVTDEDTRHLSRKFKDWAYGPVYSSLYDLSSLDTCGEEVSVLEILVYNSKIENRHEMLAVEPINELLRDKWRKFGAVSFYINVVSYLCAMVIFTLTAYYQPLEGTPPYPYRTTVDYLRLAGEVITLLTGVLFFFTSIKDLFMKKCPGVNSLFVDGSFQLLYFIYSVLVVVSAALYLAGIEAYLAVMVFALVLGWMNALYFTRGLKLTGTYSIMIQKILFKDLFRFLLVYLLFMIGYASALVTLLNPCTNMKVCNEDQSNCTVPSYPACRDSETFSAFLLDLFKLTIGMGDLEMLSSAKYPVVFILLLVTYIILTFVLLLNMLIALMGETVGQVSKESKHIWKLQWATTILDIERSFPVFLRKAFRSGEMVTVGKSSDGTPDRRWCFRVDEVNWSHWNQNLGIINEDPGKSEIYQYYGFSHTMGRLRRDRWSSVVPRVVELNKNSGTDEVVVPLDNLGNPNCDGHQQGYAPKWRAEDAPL
Description: as §1

rat TRPM8 = biological target: T6, rat TRPM8 (Rattus norvegicus, UniProt Q8R455); assay: Elevation of intracellular Ca2+ (Fluo-4) in HEK-293 cells stably transfected with rat TRPM8; type: cell-based
T6 construct: expressed in transfected cells; host or cells: HEK-293
T6 sequence (Q8R455 whole entry): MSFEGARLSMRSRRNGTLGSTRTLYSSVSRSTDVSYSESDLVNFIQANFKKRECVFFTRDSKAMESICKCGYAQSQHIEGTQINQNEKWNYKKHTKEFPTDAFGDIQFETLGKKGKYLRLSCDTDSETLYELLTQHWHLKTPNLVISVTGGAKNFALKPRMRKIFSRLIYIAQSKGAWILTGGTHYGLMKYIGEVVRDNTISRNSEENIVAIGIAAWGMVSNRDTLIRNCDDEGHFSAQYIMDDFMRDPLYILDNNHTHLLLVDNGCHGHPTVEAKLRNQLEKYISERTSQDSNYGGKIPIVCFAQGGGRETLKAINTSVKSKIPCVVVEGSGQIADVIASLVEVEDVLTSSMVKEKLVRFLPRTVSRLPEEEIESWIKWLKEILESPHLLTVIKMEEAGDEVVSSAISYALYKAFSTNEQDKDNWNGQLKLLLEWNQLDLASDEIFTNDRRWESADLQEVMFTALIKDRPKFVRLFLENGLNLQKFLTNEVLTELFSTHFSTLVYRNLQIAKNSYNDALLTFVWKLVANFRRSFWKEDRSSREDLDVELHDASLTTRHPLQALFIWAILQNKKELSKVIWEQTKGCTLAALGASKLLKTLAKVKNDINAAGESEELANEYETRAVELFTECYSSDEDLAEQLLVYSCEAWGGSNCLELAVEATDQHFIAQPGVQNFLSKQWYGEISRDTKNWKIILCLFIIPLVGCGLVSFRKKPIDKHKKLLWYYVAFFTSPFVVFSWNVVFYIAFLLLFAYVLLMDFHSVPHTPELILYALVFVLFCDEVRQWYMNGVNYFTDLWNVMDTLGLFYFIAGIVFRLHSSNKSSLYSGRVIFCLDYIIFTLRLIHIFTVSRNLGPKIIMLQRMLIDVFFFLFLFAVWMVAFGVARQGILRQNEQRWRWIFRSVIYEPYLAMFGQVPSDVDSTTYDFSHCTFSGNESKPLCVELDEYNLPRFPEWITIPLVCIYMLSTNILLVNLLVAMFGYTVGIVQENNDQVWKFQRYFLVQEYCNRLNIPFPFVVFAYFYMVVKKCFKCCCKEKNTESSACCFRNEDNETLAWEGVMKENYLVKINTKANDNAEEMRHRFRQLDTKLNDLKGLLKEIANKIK
Description: as §1

T1 sequence (Q6RI86 whole entry): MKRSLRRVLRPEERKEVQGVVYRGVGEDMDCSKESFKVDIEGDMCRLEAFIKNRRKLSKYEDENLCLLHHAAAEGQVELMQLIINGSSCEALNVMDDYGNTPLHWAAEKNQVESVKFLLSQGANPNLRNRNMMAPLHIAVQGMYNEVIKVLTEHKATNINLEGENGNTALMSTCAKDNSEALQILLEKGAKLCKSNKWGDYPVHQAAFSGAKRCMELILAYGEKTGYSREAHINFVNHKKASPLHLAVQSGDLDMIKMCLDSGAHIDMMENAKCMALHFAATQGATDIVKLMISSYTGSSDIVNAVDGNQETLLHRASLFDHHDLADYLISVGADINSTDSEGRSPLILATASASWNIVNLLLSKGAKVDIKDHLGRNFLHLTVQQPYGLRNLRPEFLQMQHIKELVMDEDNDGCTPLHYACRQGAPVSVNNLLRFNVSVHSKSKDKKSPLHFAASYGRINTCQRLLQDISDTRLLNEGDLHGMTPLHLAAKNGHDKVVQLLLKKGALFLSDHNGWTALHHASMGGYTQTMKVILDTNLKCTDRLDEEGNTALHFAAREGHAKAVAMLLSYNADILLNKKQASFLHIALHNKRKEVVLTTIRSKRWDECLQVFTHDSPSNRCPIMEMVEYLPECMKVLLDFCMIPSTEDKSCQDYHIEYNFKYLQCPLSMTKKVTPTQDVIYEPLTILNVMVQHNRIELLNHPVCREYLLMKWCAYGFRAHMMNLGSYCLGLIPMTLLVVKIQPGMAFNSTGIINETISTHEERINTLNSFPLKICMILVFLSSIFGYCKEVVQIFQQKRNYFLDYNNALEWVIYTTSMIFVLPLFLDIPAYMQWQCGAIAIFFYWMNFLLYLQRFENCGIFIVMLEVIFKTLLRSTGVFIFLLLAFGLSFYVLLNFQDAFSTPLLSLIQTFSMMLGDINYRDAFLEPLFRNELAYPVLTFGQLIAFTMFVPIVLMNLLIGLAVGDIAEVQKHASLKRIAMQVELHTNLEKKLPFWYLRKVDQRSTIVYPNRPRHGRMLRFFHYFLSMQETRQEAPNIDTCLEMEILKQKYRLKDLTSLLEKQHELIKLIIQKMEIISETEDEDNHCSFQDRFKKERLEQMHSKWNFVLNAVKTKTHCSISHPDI

C[C@@H]1O[C@@H](Oc2ccc(CN=C=S)cc2)[C@H](O)[C@H](O)[C@H]1O [Moringin, 4-[(α-L-rhamnosyloxy)benzyl]isothiocyanate]
EC50 (rat TRPA1): 3.14 ± 0.16 µM
IC50 (rat TRPA1): 3.6 ± 0.05 µM
Effect of AITC 100 μM administered after pre-incubation with moringin (rat TRPA1; TRPA1-HEK293 cells, pre-incubation with moringin 50 μM): completely inhibited
Efficacy (% AITC 100 µM) (rat TRPA1; rTRPA1-HEK-293, percentage of the effect on [Ca2+]i of AITC 100 µM): 102.6 ± 1.1%
IC50 (rat TRPV3): > 100 µM
EC50 (human TRPV1): 20.4 ± 1.3 µM
IC50 (human TRPV1): > 50 µM
Efficacy (% Ionomycin 4 µM) (human TRPV1; TRPV1): 46.8 ± 0.7%
Potency EC50 (human TRPV1; TRPV1): weak
IC50 (rat TRPV2): > 100 µM
Delay of the disease onset [1]: about two weeks
Increase of [Ca2+]i in not transfected HEK-293 cells, % of the response in rTRPA1 HEK-293 cells [2]: < 10%
IC50 (rat TRPV4): > 100 µM
IC50 (rat TRPM8): > 100 µM
